Measured values: patent US6258790A, “Antisense modulation of integrin α4 expression” (Isis Pharmaceuticals, Inc., priority 1999, dated 2001)

Tested on: human integrin α4
Test: Inhibition of human integrin α4 protein levels by antisense oligonucleotides (LIPOFECTIN, flow cytometry with CD49d-FITC) in A375 melanoma cells
Format: cell-based
Parameters: % Inhib.: tested at 200 nM
Settings: for inhibition (Example 11): Example 11 assay; for % Control (integrin α4 protein) / % Inhib (integrin α4 protein): Table 1, 200 nM oligonucleotide, 6 ug/ml LIPOFECTIN; for % CONTROL 48 hr / % INHIB 48 hr / % CONTROL 72 hr / % INHIB 72 HR: Table 2, A375
Excerpt: Integrin α4 protein levels can be quantitated in a variety of ways well known in the art, such as immunoprecipitation, Western blot analysis (immunoblotting), ELISA or fluorescence-activated cell sorting (FACS). Antibodies directed to integrin α4 can be identified and obtained from a variety of sources, such as the MSRS catalog of antibodies (Aerie Corporation, Birmingham, Mich.), or can be prepared via conventional antibody generation methods.
Target sites are indicated by nucleotide numbers, as given in the sequence source reference (GenBank accession no. L12002), to which the oligonucleotide binds. All compounds in Table 1 are 18 nucleotides in length, with a phosphorothioate backbone and a centered 10-base deoxynucleotide gap flanked by 2'-methoxyethoxy (2'MOE) wings. Human A375 melanoma cells (American Type Culture Collection, Manassas, Va.) were plated at 2000 cells/cm^2 two days before oligonucleotide treatment. Cells were treated with oligonucleotides at a dose of 200 nM oligonucleotide and 6 ug/ml LIPOFECTIN for four hours. Cells were incubated overnight and harvested with 2 mM EDTA in PBS. Cells were washed in 2% bovine serum albumin, 0.2% sodium azide in D-PBS at 4° C. Cells were centrifuged at 200×g, and the supernatant was decanted. […] Antibodies were incubated with the cells for 30 minutes at 4° C. in the dark, under gentle agitation. Cells were washed again as above and then resuspended in 0.3 ml of FacsFlow buffer with 0.5% formaldehyde. Cells were analyzed on Becton Dickinson FACScan. Results are expressed as percentage of control expression based on mean fluorescence intensity.
Cells were harvested with trypsin at 48 and 72 hours after oligonucleotide treatment and stained with 2 ug/ml CD49d-FITC as in the previous example.
Where backbones are mixed, linkages are shown as "s" for phosphorothioate (P=S or PS) and "o" for phosphodiester (P=O or PO). Where target region is indicated as `M62841,` oligonucleotides are targeted to the promotor region whose sequence is described in GenBank Accession No. M62841. Remaining oligonucleotides are targeted to the sequence described in Genbank Accession No. L12002 and their target sites on the L12002 sequence are indicated.
Target sites refer to nucleotide numbers on the target sequence (GenBank Accession No. L12002) to which the oligonucleotides hybridize.
Oligonucleotides were synthesized as "gapmers" consisting of a 9-nucleotide region of deoxynucleotides flanked by three 2'-O-methoxyethyl(2'-MOE) nucleotides on the 5' end and eight 2'-MOE nucleotides on the 3' end. 2'-MOE nucleotides are shown in bold in the table. Oligonucleotides were synthesized with phosphorothioate backbones throughout, and all cytosines are 5-methylcytosines.

[1] = Table 24, A375 cells, lipofectin, as Example 8

24453 (GCTTATTTTCATTCTTTA; chemistry not given here) [compound 24453]
inhibition (Example 11) (dose not stated): ≥ 40% | % Control (integrin α4 protein) (A375 cells): 47% | % CONTROL 48 hr (50 nM): 79% | % INHIB 48 hr (50 nM): 21% | % CONTROL 72 hr (50 nM): 78% | % INHIB 72 HR (50 nM): 22% | % CONTROL 48 hr (100 nM): 95% | % CONTROL 72 hr (100 nM): 93% | % CONTROL 48 hr (200 nM): 38% | % INHIB 48 hr (200 nM): 62% | % CONTROL 72 hr (200 nM): 64% | % INHIB 72 HR (200 nM): 36% | % CONTROL 48 hr (400 nM): 41% | % INHIB 48 hr (400 nM): 59% | % CONTROL 72 hr (400 nM): 58% | % INHIB 72 HR (400 nM): 42% | % Control (Table 6, 10 nM): 88% | % Inhib. (Table 6, 10 nM): 12% | % Control (Table 6, 30 nM): 90% | % Inhib. (Table 6, 30 nM): 10% | % Control (Table 6, 100 nM): 80% | % Inhib. (Table 6, 100 nM): 20% | % Control (Table 6, 300 nM): 43% | % Inhib. (Table 6, 300 nM (highest dose)): 57%

107237 (antisense CGCGCCTCGCTTCCCAAGCC; chemistry not given here) [compound 107237]
% Control [1]: 46%

107260 (antisense TTTGCCAGTTTGGCCTATAA; chemistry not given here) [compound 107260]
% Control [1]: 50%

24441 (CCTGGGATGCCGCGCACT; chemistry not given here) [compound 24441]
% Control (integrin α4 protein) (A375 cells): 112%

24475 (GCCCTTATATGAGAAACA; phosphorothioate, 2'-MOE/deoxy, further chemistry not given here) [compound 24475]
inhibition (Example 10) (Example 10 assay, dose not stated): ≥ 40% | % Control (integrin α4 protein) (A375 cells): 48% | % CONTROL 48 hr (50 nM): 60% | % INHIB 48 hr (50 nM): 40% | % CONTROL 72 hr (50 nM): 69% | % INHIB 72 HR (50 nM): 31% | % CONTROL 48 hr (100 nM): 31% | % INHIB 48 hr (100 nM): 69% | % CONTROL 72 hr (100 nM): 44% | % INHIB 72 HR (100 nM): 56% | % CONTROL 48 hr (200 nM): 30% | % INHIB 48 hr (200 nM): 70% | % CONTROL 48 hr (400 nM): 39% | % INHIB 48 hr (400 nM): 61% | % CONTROL 72 hr (400 nM): 52% | % INHIB 72 HR (400 nM): 48% | % Control (Table 4, 10 nM): 97% | % Control (Table 4, 30 nM): 73% | % Inhib. (Table 4, 30 nM): 27% | % Control (Table 4, 100 nM): 84% | % Inhib. (Table 4, 100 nM): 16% | % Control (Table 4, 300 nM): 55% | % Inhib. (Table 4, 300 nM (highest dose)): 45%

107243 (antisense CCAGCCTTCCACATAACATA; chemistry not given here) [compound 107243]
% Control [1]: 39%

26644 (TTTCCATTCTCTCAATTTGA; phosphorothioate, 2'-MOE/deoxy, further chemistry not given here) [compound 26644]
inhibition (Example 11) (dose not stated): ≥ 40% | % Control (Table 6, 10 nM): 99% | % Control (Table 6, 30 nM): 94% | % Control (Table 6, 100 nM): 78% | % Inhib. (Table 6, 100 nM): 22% | % Control (Table 6, 300 nM): 48% | % Inhib. (Table 6, 300 nM (highest dose)): 52%

107244 (antisense AGGATAGATTTGTATTGTCT; chemistry not given here) [compound 107244]
% Control [1]: 37%

24467 (TCATCTTCTTGTGGAGCT; chemistry not given here) [compound 24467]
% Control (integrin α4 protein) (A375 cells): 101%

107254 (antisense TGCTTTAGTGTTTCTCTACC; chemistry not given here) [compound 107254]
% Control [1]: 33%

107240 (antisense AGAGTTATCTGTGACTTCAC; chemistry not given here) [compound 107240]
% Control [1]: 40%

24461 (CCACAGCACAGACAGAAG; chemistry not given here) [compound 24461]
% Control (integrin α4 protein) (A375 cells): 69% | % Inhib (integrin α4 protein) (A375 cells): 31%

24440 (CGGGTGCTCGCGCTGCTT; chemistry not given here) [compound 24440]
% Control (integrin α4 protein) (A375 cells): 101%

24445 (CCCGGGTTCGCGCCTCGC; chemistry not given here) [compound 24445]
% Control (integrin α4 protein) (A375 cells): 73% | % Inhib (integrin α4 protein) (A375 cells): 27%

107230 (antisense AGACTCGCGTCCTGGCCCGG; chemistry not given here) [compound 107230]
% Control [1]: 73% | % Inhib. [1]: 27%

107229 (antisense AGTCCGCAGAGCGCGGGATG; chemistry not given here) [compound 107229]
% Control [1]: 104%

24448 (ACTGAAGCGTTGGCGAGC; chemistry not given here) [compound 24448]
% Control (integrin α4 protein) (A375 cells): 55% | % Inhib (integrin α4 protein) (A375 cells): 45%

100025 (antisense CCCAGCACATCGGCTCTCGG; chemistry not given here) [compound 100025]
% Control [1]: 97% | % Inhib. [1]: 3%

24468 (CCATCTGCACGGCCATTG; chemistry not given here) [compound 24468]
% Control (integrin α4 protein) (A375 cells): 72% | % Inhib (integrin α4 protein) (A375 cells): 28%

26640 (CCACTGATTGTCTCTCTCTT; phosphorothioate, 2'-MOE/deoxy, further chemistry not given here) [compound 26640]
inhibition (Example 11) (dose not stated): ≥ 40% | % Control (Table 6, 10 nM): 91% | % Control (Table 6, 30 nM): 83% | % Inhib. (Table 6, 30 nM): 17% | % Control (Table 6, 100 nM): 62% | % Inhib. (Table 6, 100 nM): 38% | % Control (Table 6, 300 nM): 35% | % Inhib. (Table 6, 300 nM (highest dose)): 65%

24439 (CTCCGTCTCTGCCTACGC; chemistry not given here) [compound 24439]
% Control (integrin α4 protein) (A375 cells): 120%

24740 (GAAGGCCCCTGGGGAACATT; phosphorothioate deoxy, further chemistry not given here) [compound 24740]
% Control (Table 4, 10 nM): 122% | % Control (Table 4, 30 nM): 119% | % Control (Table 4, 100 nM): 106% | % Control (Table 4, 300 nM): 88% | % Inhib. (Table 4, 300 nM (highest dose)): 12%

24743 (GAAGGCCCCTGGGGAACATT; phosphorothioate, 2'-MOE, 5-methyl-C, further chemistry not given here) [compound 24743]
% Control (Table 4, 10 nM): 96% | % Control (Table 4, 30 nM): 121% | % Control (Table 4, 100 nM): 117% | % Control (Table 4, 300 nM): 105%

107247 (antisense AAGAAGTCCTTAATCATCAT; chemistry not given here) [compound 107247]
% Control [1]: 65% | % Inhib. [1]: 35%

24444 (GGAACATTCAACACTAAG; chemistry not given here) [compound 24444]
% Control (integrin α4 protein) (A375 cells): 68% | % Inhib (integrin α4 protein) (A375 cells): 32%

24451 (CCACTGATTGTCTCTCTC; chemistry not given here) [compound 24451]
inhibition (Example 11) (dose not stated): ≥ 40% | % Control (integrin α4 protein) (A375 cells): 51% | % CONTROL 48 hr (50 nM): 63% | % INHIB 48 hr (50 nM): 37% | % CONTROL 48 hr (100 nM): 44% | % INHIB 48 hr (100 nM): 56% | % CONTROL 48 hr (200 nM): 34% | % INHIB 48 hr (200 nM): 66% | % CONTROL 48 hr (400 nM): 44% | % INHIB 48 hr (400 nM): 56% | % Control (Table 6, 10 nM): 96% | % Control (Table 6, 30 nM): 77% | % Inhib. (Table 6, 30 nM): 23% | % Control (Table 6, 100 nM): 66% | % Inhib. (Table 6, 100 nM): 34% | % Control (Table 6, 300 nM): 35% | % Inhib. (Table 6, 300 nM (highest dose)): 65%

24452 (GGATCCATTTTCTCCTGG; chemistry not given here) [compound 24452]
% Control (integrin α4 protein) (A375 cells): 60% | % Inhib (integrin α4 protein) (A375 cells): 40%

24741 (AGACGTTATGGCTATTCTCT; phosphorothioate deoxy, further chemistry not given here) [compound 24741]
% Control (Table 4, 10 nM): 109% | % Control (Table 4, 30 nM): 113% | % Control (Table 4, 100 nM): 125% | % Control (Table 4, 300 nM): 127%

24443 (CAAAGTTGCACGGGATGC; chemistry not given here) [compound 24443]
% Control (integrin α4 protein) (A375 cells): 63% | % Inhib (integrin α4 protein) (A375 cells): 37%

24457 (TTATTTGTAGTTATATTG; chemistry not given here) [compound 24457]
% Control (integrin α4 protein) (A375 cells): 106%

24478 (GGCGGGCTGTTTTCCATT; chemistry not given here) [compound 24478]
% Control (integrin α4 protein) (A375 cells): 115%

107241 (antisense GATACTGAGGTCCTCTTCCG; chemistry not given here) [compound 107241]
% Control [1]: 36%
